Values of other authors in US20240249808A1, “Physiologically Based Toxicokinetic (PBTK) Modeling for Implant Toxicology” (Cyprus University of Technology, priority 2021, published 2024).

Conditions: parenteral (non-oral) exposure; prolonged or permanent patient exposure; adverse systemic effects except hypersensitivity; CDRH recommended

[Ni] [nickel]
Tolerable Intake (TI) value: 0.5 µg/kg/day
